Test results published in PubChem BioAssay (NCI).
“And” between values parts separate entries of the source, which are not always exact repeats. Equal entries are not always repeated.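 Test compounds were applied to cells in 96-well plates for 48 hours at 5 doses. TGI: concentration producing complete growth inhibition.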

Assays:
Experiment in all cases: inhibition of tumour cell growth, NCI panel, 48 h
SF-295 CNS = tested on: SF-295 CNS
MCF7 breast = tested on: MCF7 breast
HOP-62 NSCLC = tested on: HOP-62 NSCLC
A498 renal = tested on: A498 renal
HCT-15 colon = tested on: HCT-15 colon
K-562 leukemia = tested on: K-562 leukemia
CAKI-1 renal = tested on: CAKI-1 renal
UACC-257 melanoma = tested on: UACC-257 melanoma
UO-31 renal = tested on: UO-31 renal
MDA-MB-435 = tested on: MDA-MB-435
T-47D breast = tested on: T-47D breast
NCI-H23 lung = tested on: NCI-H23 lung
MDA-MB-231 breast = tested on: MDA-MB-231 breast
SK-MEL-5 melanoma = tested on: SK-MEL-5 melanoma
HT29 colon = tested on: HT29 colon
M14 melanoma = tested on: M14 melanoma
RPMI-8226 leukemia = tested on: RPMI-8226 leukemia
SK-OV-3 ovarian = tested on: SK-OV-3 ovarian
MDA-N = tested on: MDA-N

Row | SMILES | TGI (SF-295 CNS) [µM] | TGI (MCF7 breast) [µM] | TGI (HOP-62 NSCLC) [µM] | TGI (A498 renal) [µM] | TGI (HCT-15 colon) [µM] | TGI (K-562 leukemia) | TGI (CAKI-1 renal) [µM] | TGI (UACC-257 melanoma) [µM] | TGI (UO-31 renal) [µM] | TGI (MDA-MB-435) [µM] | TGI (T-47D breast) [µM] | TGI (NCI-H23 lung) [µM] | TGI (MDA-MB-231 breast) [µM] | TGI (SK-MEL-5 melanoma) [µM] | TGI (HT29 colon) [µM] | TGI (M14 melanoma) [µM] | TGI (RPMI-8226 leukemia) [µM] | TGI (SK-OV-3 ovarian) [µM] | TGI (MDA-N)
1 | CCOC(=O)C1C(=O)CC(C)(O)C(C(=O)OCC)C1c1ccc(N(C)C)cc1 (configuration not stated) | > 100 | > 100 | > 100 | > 100 | > 100 | > 100 µM | > 100 | > 100 | > 100 | > 100 | > 100 | > 100 | > 100 | > 100 | > 100 | – | – | – | –
2 | COc1cc(CC2CCc3nc(N)nc(N)c3C2)cc(OC)c1OC (configuration not stated) | > 51.3 | > 100 | 69.7 | > 87.8 | > 100 | > 100 µM | – | > 63.1 | > 71.5 | > 100 | > 100 | > 72.5 | > 100 | 16.6 | > 100 | 28.7 | > 68.4 | > 100 | –
3 | COC(=O)[C@H](CCSC)NC(=O)c1ccc(CNC(=O)/C=C/c2cccc(Oc3ccccc3)c2)cc1 | > 100 | > 100 | > 100 | 48.3 | > 100 | > 78.8 µM | > 80.3 | 26.9 | > 100 | 32.9 | 27 | > 92.1 | > 83.5 | 34.5 | > 100 | 26.8 | > 100 | > 100 | –
4 | Cc1ccc(S(=O)(=O)Nn2c(-c3ccccc3)c(C#N)c(-c3ccc(Cl)cc3)c(C#N)c2=O)cc1 | > 100 | > 100 | > 100 | 51.1 | > 100 | > 100 µM | > 100 | > 100 | – | > 100 | – | – | 89.5 | 29.3 | – | 41.4 | 37.4 | > 100 | > 100 µM
5 | CC(=O)c1ccc(-c2oc(-c3ccccc3)cc2-c2ccc3c(c2)OCO3)s1 | > 100 | > 100 | > 100 | > 100 | – | > 100 µM | 5.07 | > 100 | > 100 | 6.08 | > 100 | 89.9 | – | > 100 | > 100 | > 100 | > 100 | > 100 | –
6 | COC(=O)[C@@H]1O[C@]12C(CO[Si](C)(C)C(C)(C)C)OC(n1ccc(=O)[nH]c1=O)C2O[Si](C)(C)C(C)(C)C (some centres not stated) | 57.7 | 37.2 | 48 | – | > 100 | > 100 µM | 72 | 57.5 | 45.5 | 58.7 | – | 54.5 | > 100 | 51.6 | 43.4 | 30.7 | > 100 | > 100 | > 100 µM
7 | CCOC(=O)CSc1nc(-c2ccc(OC)cc2)c(C#N)c(=O)[nH]1 | > 100 | > 100 | > 100 | > 100 | > 100 | > 100 µM | > 100 | > 100 | > 100 | > 100 | > 100 | > 100 | > 100 | > 100 | > 100 | > 100 | > 100 | > 100 | –
8 | CCC1(O)CC(OC2CC(N(C)C)C(OC3CC(O)C(OC4OC(C)C(=O)C=C4N)C(C)O3)C(C)O2)c2c(O)c3c(c(O)c2C1C(=O)OC)C(=O)c1cccc(O)c1C3=O (configuration not stated) | – | 1.4 | 0.855 | 0.0129 | 1.17 | 0.125 µM and 0.0234 µM | – | – | – | 0.107 | – | 0.036 | 0.296 | 0.0659 | 0.215 | 0.0268 | 0.0858 | – | 0.118 µM and 0.012 µM
9 | CC1CC(N)=Nc2ccccc2N1Cc1ccccc1 (configuration not stated) | 27.8 | – | 27.2 | 23.3 | 29.9 | 15.7 µM | 25.2 | 25.5 | 42.3 | 26.8 | – | 31.1 | 27.4 | 27.8 | 27.4 | 29.3 | 17.2 | 25.9 | 39.6 µM
10 | O=C(O)C(Cc1ccc(O)cn1)NC(=O)C(F)(F)F (configuration not stated) | > 100 | > 100 | > 100 | > 100 | > 100 | > 100 µM | > 100 | > 100 | > 100 | > 100 | – | > 100 | > 100 | > 100 | > 100 | – | > 100 | – | > 100 µM
11 | C#CCCCC(=C)C[C@H](OCc1ccccc1)[C@H]1OC(=O)[C@@H]1C | > 100 | > 100 | > 100 | > 100 | > 100 | – | 46.5 | > 100 | 58.8 | > 100 | – | > 100 | 63.3 | – | – | > 100 | 83.7 | > 100 | > 100 µM
